Experimental data from US10800789B2, “Antiviral compounds” (Gilead Pharmasset LLC, priority 2012, dated 2020).
Like-named read-outs stand apart in the source and are kept apart here.

Legend:
[1] = tested on: NS5A chimeric genotype 1b Con1 replicon with genotype 4a ED43 strain NS5A gene; assay: Replicon assay, genotype 4a NS5A chimera; assay type: cell-based, HCV; settings: Hepatitis C virus
[2] = tested on: NS5A chimeric genotype 2a JFH-1 replicon with genotype 2b MD2b-1 strain NS5A gene (M31 present); assay: Replicon assay, genotype 2b NS5A chimera; assay type: cell-based, HCV; settings: Hepatitis C virus
Procedure: (§1) Evaluation of Cell-Based Anti-HCV Activity:
(§2) Antiviral potency (EC50) was determined using a Renilla luciferase (RLuc)-based HCV replicon reporter assay. To perform the assay for genotype 1 and 2a JFH-1, stable HCV 1a RLuc replicon cells (harboring a dicistronic genotype 1a H77 replicon that encodes a RLuc reporter), stable HCV 1b RLuc replicon cells (harboring a dicistronic genotype 1b Con1 replicon that encodes a RLuc reporter), or stable HCV 2a JFH-1 Rluc replicon cells (harboring a dicistronic genotype 2a JFH-1 replicon that encodes a RLuc reporter; with L31 present in NS5A) were dispensed into 384-well plates for EC50 assays. To perform the assay for genotype 2a (with M31 present in NS5A) or 2b, NS5A chimeric genotype 2a JFH-1 replicons that encodes a RLuc-Neo reporter and either genotype 2a J6 strain NS5A gene or genotype 2b MD2b-1 strain NS5A gene (both with M31 present) respectively, were either transiently transfected (t) into Huh-Lunet cells or were established as stably replicating replicon cells (s) is provided. Either cells were dispensed into 384-well plates for EC50 assays. To perform the assay for genotype 3 and 4, NS5A chimeric genotype 1b Con1 replicons that encodes a Pi-RLuc reporter and either genotype 3a S52 strain NS5A gene or genotype 4a ED43 strain NS5A gene respectively, were transiently transfected (t) into Huh-Lunet cells, which were subsequently dispensed into 384-well plates. Compounds were dissolved in DMSO at a concentration of 10 mM and diluted in DMSO either manually or using an automated pipeting instrument. Serially 3-fold diluted compounds were either manually mixed with cell culture media and added to the seeded cells or directly added to the cells using an automated instrument. DMSO was used as a negative (solvent; no inhibition) control, and the protease inhibitor ITMN-191 was included at a concentration>100×EC50 as a positive control. 72 hours later, cells were lysed and Renilla luciferase activity quantified as recommended by the manufacturer (Promega-Madison, Wis.). Non-linear regression was performed to calculate EC50 values.

[3] = tested on: stable HCV 2a JFH-1 Rluc replicon cells (L31 present in NS5A); assay: Renilla luciferase HCV replicon reporter assay, genotype 2a JFH-1; assay type: cell-based; settings: Hepatitis C virus
Procedure: as §1, §2

[4] = tested on: NS5A chimeric genotype 1b Con1 replicon with genotype 3a S52 strain NS5A gene; assay: Replicon assay, genotype 3a NS5A chimera; assay type: cell-based, HCV; settings: Hepatitis C virus
[5] = tested on: NS5A chimeric genotype 2a JFH-1 replicon with genotype 2a J6 strain NS5A gene (M31 present); assay: Replicon assay, genotype 2a J6 NS5A chimera; assay type: cell-based, HCV; settings: Hepatitis C virus
Procedure: as §1, §2

[6] = tested on: stable HCV 1a RLuc replicon cells (dicistronic genotype 1a H77 replicon); assay: Renilla luciferase HCV replicon reporter assay, genotype 1a; assay type: cell-based; settings: Hepatitis C virus, 72 h, stable 1a H77 RLuc replicon cells
Procedure: as §1, §2

[7] = tested on: stable HCV 1b RLuc replicon cells (dicistronic genotype 1b Con1 replicon); assay: Renilla luciferase HCV replicon reporter assay, genotype 1b; assay type: cell-based; settings: Hepatitis C virus, 72 h, stable 1b Con1 RLuc replicon cells, 72 hours; read-out: 1b
Procedure: as §1, §2

[8] = read-out: 4a (s) (nM), genotype 4a NS5A chimeric replicon, stable replicon cells (s)
[9] = read-out: 4a (s), (s), activity range
[10] = 2BS, read-out: 2b (s), stably replicating replicon cells (s), activity range
[11] = read-out: 2b (s) (nM), genotype 2b MD2b-1 NS5A chimeric replicon (M31), stably replicating replicon cells (s)
[12] = read-out: 2a JFH (nM), genotype 2a JFH-1 replicon (L31 in NS5A), stable cells
[13] = read-out: 2a JFH, stable 2a JFH-1 Rluc replicon cells, L31 in NS5A, activity range
[14] = read-out: 3a (s) (nM), genotype 3a NS5A chimeric replicon, stable replicon cells (s)
[15] = read-out: 3a (s), (s), activity range
[16] = read-out: 2a J6 (t) (nM), genotype 2a J6 NS5A chimeric replicon (M31), transiently transfected (t) into Huh-Lunet cells
[17] = read-out: 2a J6 (t), transiently transfected (t) into Huh-Lunet cells, activity range
[18] = read-out: 3a (t) (nM), genotype 3a NS5A chimeric replicon, transiently transfected (t)
[19] = read-out: 3a (t), transiently transfected (t) into Huh-Lunet cells, activity range

Structure (SMILES) | EC50 [1, 8] [nM] | EC50 [1, 9] [nM] | EC50 [2, 10] [nM] | EC50 [2, 11] [nM] | EC50 [3, 12] [nM] | EC50 [3, 13] [nM] | EC50 [4, 14] [nM] | EC50 [4, 15] [nM] | EC50 [5, 16] [nM] | EC50 [5, 17] [nM] | EC50 [6] [nM] | EC50 ([6]; activity range) [nM] | EC50 [7] [nM] | EC50 [4, 18] [nM] | EC50 [4, 19] [nM]
COC(=O)N[C@H](C(=O)N1[C@@H](C)CC[C@H]1c1ncc(-c2ccc3c(c2)COc2cc4c(ccc5nc([C@@H]6CC[C@H](C)N6C(=O)[C@@H](NC(=O)OC)[C@H](C)O)[nH]c54)cc2-3)[nH]1)C(C)C [HW] | 0.021 | < 0.1 | 1 to 44 | 1.79 | 0.047 | < 0.1 | 0.085 | < 0.1 | 1.1 | 1 to 44 | 0.056 | < 0.1 | 0.066 |  | 
CC[C@H](C)[C@H](NC(=O)OC)C(=O)N1[C@@H](C)CC[C@H]1c1ncc(-c2ccc3c(c2)COc2cc4c(ccc5nc([C@@H]6CC[C@H](C)N6C(=O)[C@@H](NC(=O)OC)[C@@H](C)CC)[nH]c54)cc2-3)[nH]1 [EC, Methyl {(2S,3S)-1-[(2S,5S)-2-(9-{2-[(2S,5S)-1-{(2S,3S)-2-[(methoxycarbonyl)amino]-3-methylpentanoyl}-5-methylpyrrolidin-2-yl]-1H-imidazol-5-yl}-1,11-dihydroisochromeno[4′,3′:6,7]naphtho[1,2-d]imidazol-2-yl)-5-methylpyrrolidin-1-yl]-3-methyl-1-oxopentan-2-yl}carbamate] | 0.004 | < 0.1 | 0.1 to 0.999 | 0.4 | 0.015 | < 0.1 | 0.029 | < 0.1 | 0.429 | 0.1 to 0.999 | 0.008 | < 0.1 | 0.017 |  | 
COC(=O)N[C@H](C(=O)N1C[C@H]2C[C@H]2[C@H]1c1ncc(-c2ccc3c(c2)COc2cc4c(ccc5nc([C@@H]6CC[C@H](C)N6C(=O)[C@@H](NC(=O)OC)C(C)C)[nH]c54)cc2-3)[nH]1)C(C)C [HR] | 0.015 | < 0.1 | 1 to 44 | 2.18 | 0.022 | < 0.1 | 0.047 | < 0.1 | 1.12 | 1 to 44 | 0.015 | < 0.1 | 0.024 |  | 
COC(=O)N[C@H](C(=O)N1[C@@H](C)CC[C@H]1c1ncc(-c2ccc3c(c2)COc2cc4c(ccc5nc([C@@H]6CC[C@H](C)N6C(=O)[C@@H](NC(=O)OC)C6CCCCC6)[nH]c54)cc2-3)[nH]1)C(C)C [HE] | 0.014 | < 0.1 | 1 to 44 | 1.59 | 0.017 | < 0.1 | 0.074 | < 0.1 | 0.677 | 0.1 to 0.999 | 0.011 | < 0.1 | 0.02 |  | 
COC(=O)N[C@H](C(=O)N1[C@@H](C)CC[C@H]1c1nc(C2CC2)c(-c2ccc3c(c2)COc2cc4c(ccc5nc([C@@H]6CC[C@H](C)N6C(=O)[C@@H](NC(=O)OC)[C@@H](C)OC)[nH]c54)cc2-3)[nH]1)[C@@H](C)OC [GC, Methyl [(2S,3R)-1-{(2S,5S)-2-[9-(4-cyclopropyl-2-{(2S,5S)-1-[N-(methoxycarbonyl)-O-methyl-L-threonyl]-5-methylpyrrolidin-2-yl}-1H-imidazol-5-yl)-1,11-dihydroisochromeno[4′,3′:6,7]naphtho[1,2-d]imidazol-2-yl]-5-methylpyrrolidin-1-yl}-3-methoxy-1-oxobutan-2-yl]carbamate] | 0.013 | < 0.1 | 0.1 to 0.999 | 0.117 | 0.063 | < 0.1 | 0.14 | 0.1 to 0.999 | 0.181 | 0.1 to 0.999 | 0.013 | < 0.1 | 0.022 | 0.032 | < 0.1
COC(=O)N[C@H](C(=O)N1C(c2ncc(-c3ccc4c(c3)COc3cc5c(ccc6nc(C7C[C@H](C)CN7C(=O)[C@@H](NC(=O)OC)C(C)(C)C)[nH]c65)cc3-4)[nH]2)CC[C@@H]1C)C(C)C (stereo partly drawn) [HN] | 0.018 | < 0.1 | 1 to 44 | 2.86 | 0.018 | < 0.1 | 0.282 | 0.1 to 0.999 | 1.1 | 1 to 44 | 0.01 | < 0.1 | 0.012 |  | 
COC(=O)N[C@H](C(=O)N1[C@@H](C)CC[C@H]1c1nc2ccc3cc4c(cc3c2[nH]1)OCc1cc(-c2cnc([C@@H]3C[C@H](C)CN3C(=O)[C@@H](NC(=O)OC)C3CCOCC3)[nH]2)ccc1-4)C(C)C [EJ, methyl[(2S)-1-{(2S,5S)-2-[9-(2-{(2S,4S)-1-[(2S)-2-[(methoxycarbonyl)amino]-2-(tetrahydro-2H-pyran-4-yl)acetyl]-4-methylpyrrolidin-2-yl}-1H-imidazol-5-yl)-1,11-dihydroisochromeno[4′,3′:6,7]naphtho[1,2-d]imidazol-2-yl]-5-methylpyrrolidin-1-yl}-3-methyl-1-oxobutan-2-yl]carbamate] | 0.017 | < 0.1 | 0.1 to 0.999 | 0.112 | 0.028 | < 0.1 | 0.081 | < 0.1 | 0.041 | < 0.1 | 0.016 | < 0.1 | 0.039 | 0.046 | < 0.1
CC[C@H]1CC[C@@H](c2ncc(-c3ccc4c(c3)COc3cc5c(ccc6nc([C@@H]7CC[C@H](C)N7C(=O)[C@@H](NC(=O)OC)[C@@H](C)OC)[nH]c65)cc3-4)[nH]2)N1C(=O)[C@@H](NC(=O)OC)C(C)C [EQ, methyl{(2S,3R)-1-[(2S,5S)-2-(9-{2-[(2S,5S)-5-ethyl-1-{(2S)-2-[(methoxycarbonyl)amino]-3-methylbutanoyl}pyrrolidin-2-yl]-1H-imidazol-5-yl}-1,11-dihydroisochromeno[4′,3′:6,7]naphtho[1,2-d]imidazol-2-yl)-5-methylpyrrolidin-1-yl]-3-methoxy-1-oxobutan-2-yl}carbamate] | 0.025 | < 0.1 | 0.1 to 0.999 | 0.279 | 0.022 | < 0.1 | 0.475 | 0.1 to 0.999 |  |  | 0.034 | < 0.1 | 0.036 |  | 
CC[C@H](C)[C@H](NC(=O)OC)C(=O)N1[C@@H](C)CC[C@H]1c1nc2ccc3cc4c(cc3c2[nH]1)OCc1cc(-c2cnc([C@@H]3C[C@H](COC)CN3C(=O)[C@@H](NC(=O)OC)C(C)C)[nH]2)ccc1-4 [FS, Methyl {(2S,3S)-1-[(2S,5S)-2-(9-{2-[(2S,4S)-1-{(2S)-2-[(methoxycarbonyl)amino]-3-methylbutanoyl}-4-(methoxymethyl)pyrrolidin-2-yl]-1H-imidazol-5-yl}-1,11-dihydroisochromeno[4′,3′:6,7]naphtho[1,2-d]imidazol-2-yl)-5-methylpyrrolidin-1-yl]-3-methyl-1-oxopentan-2-yl}carbamate] | 0.017 | < 0.1 | 0.1 to 0.999 | 0.784 | 0.025 | < 0.1 | 0.411 | 0.1 to 0.999 |  |  | 0.024 | < 0.1 | 0.025 |  | 
